Source: publication PMC9969764 (ChemMedChem, 2021)

What was measured:
[1] = biological target: RET kinase (Homo sapiens, UniProt P07949); assay: RET kinase biochemical assay; settings: read-out: RET (IC50), mean of at least n = 3
[2] = biological target: TRKA (Homo sapiens, UniProt P04629); assay: TRKA kinase biochemical assay; settings: read-out: TRKA (IC50), mean of at least n = 3
[3] = test system: LC-2/ad cells (RET-CCDC6 fusion-driven NSCLC); assay: Cell viability, RET-driven cell line; assay type: cell-based; settings: read-out: LC-2/ad (EC50)
[4] = test system: KM-12 cells; assay: Cell viability, TRKA-driven matched control; assay type: cell-based; settings: read-out: KM-12 (EC50)
[5] = test system: A549 cells; assay: Cell viability, cytotoxic control; assay type: cell-based; settings: read-out: A549 (EC50)

RET kinase, sequence (P07949 29-1114): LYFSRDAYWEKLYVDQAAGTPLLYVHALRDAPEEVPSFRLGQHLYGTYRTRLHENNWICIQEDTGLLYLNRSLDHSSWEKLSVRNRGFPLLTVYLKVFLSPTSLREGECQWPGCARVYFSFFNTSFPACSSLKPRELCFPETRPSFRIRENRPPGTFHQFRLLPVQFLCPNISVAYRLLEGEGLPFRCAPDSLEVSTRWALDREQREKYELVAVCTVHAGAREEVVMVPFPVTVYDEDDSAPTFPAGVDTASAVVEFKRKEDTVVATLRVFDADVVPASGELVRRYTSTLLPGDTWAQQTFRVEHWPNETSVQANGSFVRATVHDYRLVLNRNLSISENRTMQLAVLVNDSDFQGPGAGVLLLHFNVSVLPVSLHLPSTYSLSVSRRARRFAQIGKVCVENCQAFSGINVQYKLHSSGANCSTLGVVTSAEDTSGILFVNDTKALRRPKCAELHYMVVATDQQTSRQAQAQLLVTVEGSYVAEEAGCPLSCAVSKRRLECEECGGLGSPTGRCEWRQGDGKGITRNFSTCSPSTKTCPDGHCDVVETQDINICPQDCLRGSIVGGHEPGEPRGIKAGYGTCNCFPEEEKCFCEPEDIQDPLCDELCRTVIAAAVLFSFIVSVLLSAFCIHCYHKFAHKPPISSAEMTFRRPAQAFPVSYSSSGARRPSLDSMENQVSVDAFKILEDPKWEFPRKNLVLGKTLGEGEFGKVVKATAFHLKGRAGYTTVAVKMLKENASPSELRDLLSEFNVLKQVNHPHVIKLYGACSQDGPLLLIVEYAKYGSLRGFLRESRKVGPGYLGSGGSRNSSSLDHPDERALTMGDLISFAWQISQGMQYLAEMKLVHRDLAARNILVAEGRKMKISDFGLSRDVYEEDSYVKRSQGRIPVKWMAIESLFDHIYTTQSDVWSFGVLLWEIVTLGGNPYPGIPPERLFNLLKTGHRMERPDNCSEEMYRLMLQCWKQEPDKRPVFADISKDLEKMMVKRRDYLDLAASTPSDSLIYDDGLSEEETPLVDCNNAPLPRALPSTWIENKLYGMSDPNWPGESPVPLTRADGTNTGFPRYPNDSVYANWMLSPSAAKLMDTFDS
TRKA, sequence (P04629 33-796): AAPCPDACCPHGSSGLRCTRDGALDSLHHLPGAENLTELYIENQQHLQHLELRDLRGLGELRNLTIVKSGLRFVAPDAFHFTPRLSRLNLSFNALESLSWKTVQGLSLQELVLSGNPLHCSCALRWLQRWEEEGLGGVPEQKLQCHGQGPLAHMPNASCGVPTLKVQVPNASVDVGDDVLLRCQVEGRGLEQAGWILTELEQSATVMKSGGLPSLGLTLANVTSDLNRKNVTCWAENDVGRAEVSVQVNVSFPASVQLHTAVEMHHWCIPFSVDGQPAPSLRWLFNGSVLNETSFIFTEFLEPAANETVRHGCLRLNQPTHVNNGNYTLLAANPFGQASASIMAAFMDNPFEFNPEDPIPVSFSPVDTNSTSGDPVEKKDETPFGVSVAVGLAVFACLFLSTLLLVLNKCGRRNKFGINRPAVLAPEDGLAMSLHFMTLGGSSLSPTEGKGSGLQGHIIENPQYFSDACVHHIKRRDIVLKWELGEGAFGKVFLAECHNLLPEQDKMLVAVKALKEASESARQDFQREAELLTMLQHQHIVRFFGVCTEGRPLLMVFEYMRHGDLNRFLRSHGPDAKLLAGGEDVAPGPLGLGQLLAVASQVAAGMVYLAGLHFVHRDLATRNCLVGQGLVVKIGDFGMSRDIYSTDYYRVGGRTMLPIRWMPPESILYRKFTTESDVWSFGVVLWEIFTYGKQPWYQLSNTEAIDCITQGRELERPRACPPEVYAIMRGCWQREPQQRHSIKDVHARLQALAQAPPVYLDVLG

Row | IC50 [1] [µM] | IC50 [2] [µM] | SMILES | EC50 [3] [µM] | EC50 [4] [µM] | EC50 [5] [µM]
1 | 6.82 ± 2.22 |  | Cn1nc(-c2ccccc2)c2c(N)ncnc21 [4a] |  |  | 
2 | 9.2 | 57.1 | Nc1ncnc2[nH]ncc12 [fragment 1, pyrazoloadenine] | 1.47 | 1.73 | 3.02
